Reference: ChEMBL document CHEMBL1201862, “PubChem BioAssay data set” (2004)
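1) Cells in 96-well plates. 2) Compound, 48 h, 5 concentrations. 3) Linear interpolation between surrounding doses. 4) Unreached endpoint = highest concentration. At the GI50, growth is halved.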 Active and inactive are the calls of the source. Cut-off read from the data, not from the text of the source: active = GI50 up to about 1.1 µM and inactive = higher.

Experiments:
Assay in all cases: DTP human tumour cell line panel, 48 h
U-251 = system: U-251
T47D = system: T47D
HL-60 = system: HL-60
UO-31 = system: UO-31
SK-MEL-28 = system: SK-MEL-28
SF-268 = system: SF-268
RPMI-8226 = system: RPMI-8226
MCF7 = system: MCF7
HOP-62 = system: HOP-62
DU-145 = system: DU-145
HT-29 = system: HT-29
HOP-92 = system: HOP-92
OVCAR-5 = system: OVCAR-5
IGROV-1 = system: IGROV-1
CCRF-CEM = system: CCRF-CEM
Malme-3M = system: Malme-3M
SW-620 = system: SW-620
SN12C = system: SN12C
NCI-H460 = system: NCI-H460
PC-3 = system: PC-3

SMILES	GI50 (U-251)	GI50 (T47D)	GI50 (HL-60)	GI50 (UO-31)	GI50 (SK-MEL-28)	GI50 (SF-268)	GI50 (RPMI-8226)	GI50 (MCF7)	GI50 (HOP-62)	GI50 (DU-145)	GI50 (HT-29)	GI50 (HOP-92)	GI50 (OVCAR-5)	GI50 (IGROV-1)	GI50 (CCRF-CEM)	GI50 (Malme-3M)	GI50 (SW-620)	GI50 (SN12C)	GI50 (NCI-H460)	GI50 (PC-3)
COc1ccc(-c2cc(=O)c3c(OC)c(OC)c(OC)c(OC)c3o2)cc1 [TANGERETIN]	91 µM (inactive)	17 µM (inactive)	34.4 µM (inactive)	37.5 µM (inactive)	> 100 µM (inactive)	> 100 µM (inactive)	67 µM (inactive)	> 100 µM (inactive)	82.6 µM (inactive)	85.5 µM (inactive)	35.2 µM (inactive)	20.2 µM (inactive)	> 100 µM (inactive)	69 µM (inactive)	82.6 µM (inactive)	84.1 µM (inactive)	67.8 µM (inactive)	65.2 µM (inactive)	56.2 µM (inactive)	
CC1=CCC[C@@]2(C)C(CC[C@@H]2C(C)/C=C/C(C)C)c2ccc(cc2C(=O)O)C[C@@H](O)CC1 (stereo partly specified)	3.94 µM (inactive)		9.79 µM (inactive)	15.7 µM (inactive)	14.7 µM (inactive)	14.2 µM (inactive)	3.63 µM (inactive)		20 µM (inactive)		5.13 µM (inactive)	14.4 µM (inactive)	16.4 µM (inactive)	12.3 µM (inactive)	5.09 µM (inactive)	15.7 µM (inactive)	14.9 µM (inactive)	16 µM (inactive)	7.01 µM (inactive)	
C[C@]12CCC3[C@@H](CC[C@@H]4c5nonc5CC[C@]34C)C1CCC(=O)N2 (stereo partly specified)	> 100 µM (inactive)		93.8 µM (inactive)	> 100 µM (inactive)	> 100 µM (inactive)	> 100 µM (inactive)	67.9 µM (inactive)		> 100 µM (inactive)		> 100 µM (inactive)	95.7 µM (inactive)	> 100 µM (inactive)	> 100 µM (inactive)	> 100 µM (inactive)	> 100 µM (inactive)	> 100 µM (inactive)	> 100 µM (inactive)	> 100 µM (inactive)	
COc1cc2oc(=O)cc(C)c2cc1OC	> 100 µM (inactive)			66.7 µM (inactive)	> 100 µM (inactive)	> 100 µM (inactive)	> 100 µM (inactive)	> 100 µM (inactive)	> 100 µM (inactive)	> 100 µM (inactive)	> 100 µM (inactive)		> 100 µM (inactive)	> 100 µM (inactive)	> 100 µM (inactive)	> 100 µM (inactive)	> 100 µM (inactive)	> 100 µM (inactive)		> 100 µM (inactive)
CCCCCCCCCCCCC/C=C1\C[C@H](O)COC1=O	17.7 µM (inactive)		19.8 µM (inactive)	18.6 µM (inactive)	16.2 µM (inactive)	20.4 µM (inactive)	17.5 µM (inactive)		16.6 µM (inactive)		15.7 µM (inactive)	11.6 µM (inactive)	19.2 µM (inactive)	18.1 µM (inactive)	14.3 µM (inactive)	21 µM (inactive)	15.4 µM (inactive)	14.9 µM (inactive)	17.3 µM (inactive)	
CC(=O)NNc1nc(C)c(C(=O)NNC(=O)C(=O)Nc2ccc(Cl)c([N+](=O)[O-])c2)s1	50.9 µM (inactive)		39 µM (inactive)	> 100 µM (inactive)	> 100 µM (inactive)	35.8 µM (inactive)	43.7 µM (inactive)		> 100 µM (inactive)		> 100 µM (inactive)	43.3 µM (inactive)	> 100 µM (inactive)	> 100 µM (inactive)	21.9 µM (inactive)	71.4 µM (inactive)	32.2 µM (inactive)	71.8 µM (inactive)	> 100 µM (inactive)	
C=CC(C)(C)n1cc(C2=C(O)C(=O)C(c3c(CC=C(C)C)[nH]c4ccccc34)=C(O)C2=O)c2ccccc21	1.1 µM (active)	2.47 µM (inactive)	1.86 µM (inactive)	0.67 µM (active)	0.575 µM (active)	0.548 µM (active)	1.64 µM (inactive)		1.25 µM (inactive)	1.55 µM (inactive)	2.28 µM (inactive)	1.46 µM (inactive)	2.89 µM (inactive)	0.879 µM (active)	1.92 µM (inactive)	1.82 µM (inactive)	3.43 µM (inactive)	1.57 µM (inactive)	1.52 µM (inactive)	1.73 µM (inactive)
CC(=O)ON(C(C)=O)c1ccc(-c2nc3ccccc3s2)cc1	24.2 µM (inactive)	17.4 µM (inactive)		14.6 µM (inactive)	31.8 µM (inactive)	24.7 µM (inactive)	18.3 µM (inactive)		22 µM (inactive)	26.2 µM (inactive)	24 µM (inactive)	34.7 µM (inactive)	34.2 µM (inactive)	0.791 µM (active)	7.35 µM (inactive)	14.7 µM (inactive)	26.2 µM (inactive)	40.7 µM (inactive)	28.4 µM (inactive)	50.6 µM (inactive)
